3 molecules from patent US20130337461A1, “METHOD FOR DIAGNOSIS, MONITORING THE EFFICACY OF A THERAPY AND FOR DEVELOPMENT OF TREATMENT FOR MULTIPLE SCLEROSIS” (priority 2010, published 2013) can be followed below.

For assay [1], the system named is M03-13 cells. Put plainly: Differentiation of M03-13 cells with low doses of hydrogen peroxide: differentiation markers. Type of assay: cell-based, human.
Assay [2] deals with M03-13 cells. The assay can be described thus: Differentiation of M03-13 cells with PMA: expression or localization of differentiation markers.
Setting [3] is: 200 μM H2O2 for 4 days in complete medium, Western blotting.
The mark [4] stands for this setting: 100 nM PMA 30 min, cells pre-incubated 16 h in 0.2% FBS, Western blotting, vs not differentiated.
Setting [5] is: 100 nM PMA 24 h, absence of serum, Western blotting.

For the molecule hydrogen peroxide [H2O2], the “total MBP protein levels” value in the assay with M03-13 cells [1] (200 μM H2O2 4d, flow cytometric analysis) is recorded as “increases”. For the same molecule, the “translocation of olig-2 from nucleus to cytosol” value in the assay on M03-13 cells [1] (200 μM H2O2, 30 min and 24 h, confocal microscopy) is recorded as “a cytoplasmic staining of the cells became evident already after 30 min”. In addition, the α-SMA signal result with M03-13 cells [1] (200 μM H2O2 complete medium, 1 and 4 days, confocal microscopy, vs not differentiated cells) is “decreased”. The Olig-2 fluorescent signal result in the assay with M03-13 cells [1] (200 μM H2O2 complete medium, 1 day and 4 days, confocal microscopy, vs not differentiated cells) is given as “progressively increased”. Besides, in the assay with M03-13 cells [1] (setting [3]), the P-CREB levels entry is on record as “induces”, the P-ERK1/2 levels result is given as “not affected” and the α-SMA levels entry is “decreases”. In addition, the “cytosolic MBP levels” value with M03-13 cells [1] (200 μM hydrogen peroxide 4 days, complete medium, cell fractionation and Western blotting) was “decreases”. In addition, the “differentiation of oligodendrocyte precursors to differentiated cells” value in the assay with M03-13 cells [1] (low doses of hydrogen peroxide, overall conclusion) was “induces the differentiation”.

For the molecule `CCCCCCCCCCCCCC(=O)O[C@@H]1[C@@H](C)[C@@]2(O)[C@@H](C=C(CO)C[C@]3(O)C(=O)C(C)=C[C@@H]23)[C@@H]2C(C)(C)[C@]12OC(C)=O` [PMA, 12-O-Tetradecanoylphorbol-13-acetate], in the assay on M03-13 cells [2] (setting [4]), the P-CREB levels result was “significantly increases” and the P-ERK1/2 levels entry is reported as “significantly increases”. In addition, in the assay on M03-13 cells [2] (setting [5]), the Olig-2 levels entry is recorded as “increased”, the P-CREB levels result is “increased”, the P-ERK1/2 levels result was “increased” and the α-SMA levels result is recorded as “decrease”. For the same molecule, the “translocation of olig-2 from nucleus to cytosol” value with M03-13 cells [2] (100 nM PMA 24 h, medium without serum, confocal microscopy) is reported as “a cytoplasmic staining of the cells became evident”. Also, in the assay on M03-13 cells [2] (100 nM PMA serum-free medium, 1 and 4 days, confocal microscopy, vs not differentiated cells), the α-SMA signal result is on record as “decreased”. Moreover, in the assay on M03-13 cells [2] (100 nM PMA serum-free medium, 1 day and 4 days, confocal microscopy, vs not differentiated cells), the Olig-2 fluorescent signal result is listed as “progressively increased”. The MBP signal result in the assay with M03-13 cells [2] (100 nM PMA serum-free medium, 1 day or 4 days, confocal microscopy, vs not differentiated cells) is recorded as “increased”. Also, the “mAchR M1 level” value with M03-13 cells [2] (100 nM PMA, absence of serum, 4 days, Western blotting) was “increased”. Further, in the assay on M03-13 cells [2] (100 nM PMA, absence of serum, 4 days, cell fractionation and Western blotting), the “cytosolic MBP levels” value was “decreases”. The MBP protein levels entry with M03-13 cells [2] (100 nM PMA, medium without serum, 24 h and 4 days, flow cytometric analysis) is on record as “time-dependent increase”.

As to `CC(=O)N[C@@H](CS)C(=O)O` [NAC, N-Acetyl-Cysteine], the “reversal of hydrogen peroxide effects on α-SMA, P-CREB levels” value with M03-13 cells [1] (200 μM H2O2 in presence of NAC 10 mM or AEBSF 40 μM, Western blotting) is recorded as “reverted hydrogen peroxide effects”.
